# Patent publication US9517989B2, “2-cycloalkyl resorcinol cannabinergic ligands” (priority 2012, dated 2016)
# pEC50, pKi: −log10 of the molar value.
# Legend:
# C57BL6/J mice = assay: Analgesia assay (tail immersion / tail withdrawal test); assay type: in vivo
# Experimental: (§1) Some of the disclosed compounds were tested in vivo using two well defined rodent assays for cannabinergic activity, the analgesia and the hypothermia assays. The analgesia assay (tail immersion test) determines the ability of the test compound to activate cannabinergic signaling, through modulation of cannabinoid receptors, and thereby reduce nociceptive pain. The hypothermia test determines the ability of a test compound to act as a central CB1 agonist and decrease the body temperature. […] The details of both assays are described below.
# C57BL6/J mice (Jackson Laboratories, Bar Harbor Me.) were single housed at least 1 h before start of experiment. Food and water are removed immediately before the first injection.
# Route of administration=i.p. Volume=1 mL/100 g body weight.
# Tail withdrawal test: 52° C. water bath (use bags). • a. Bag is made of stapled surgery sheets to form a small pocket the size of a mouse. • b. […] The tip of the mouse's tail is dipped into the warm water, with 1 cm submerged. • d. […] B. Hypothermia Assay
# CB1 [1] = target: T1, CB1 (Rattus norvegicus, UniProt P20272); assay: CB1 receptor binding affinity (Ki)
# T1 sequence (P20272 whole entry): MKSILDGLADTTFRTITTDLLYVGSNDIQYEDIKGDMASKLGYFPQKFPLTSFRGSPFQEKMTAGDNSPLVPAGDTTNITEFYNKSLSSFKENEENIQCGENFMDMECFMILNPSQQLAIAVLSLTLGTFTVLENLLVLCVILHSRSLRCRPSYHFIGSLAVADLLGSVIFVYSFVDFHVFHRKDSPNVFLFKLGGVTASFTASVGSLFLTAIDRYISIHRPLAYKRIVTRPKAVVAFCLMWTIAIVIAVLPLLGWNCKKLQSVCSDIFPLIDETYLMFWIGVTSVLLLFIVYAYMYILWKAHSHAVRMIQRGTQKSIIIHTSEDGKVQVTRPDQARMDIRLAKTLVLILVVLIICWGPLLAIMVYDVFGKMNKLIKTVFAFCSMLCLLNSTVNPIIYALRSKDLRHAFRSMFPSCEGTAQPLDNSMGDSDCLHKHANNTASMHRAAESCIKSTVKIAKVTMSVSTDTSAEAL
# Experimental: Some disclosed compounds were tested for CB1 and CB2 receptor binding affinity (Tables 1, 2, 3, 4, 5, 6). As used herein “binding affinity” is represented by the Ki value. The Ki value is the affinity constant and describes the affinity of the compound for the receptor. […] A detailed description of the methods used to test “binding affinity” of compounds is given in Makriyannis, et al., US 2007, 0135388 and in Papahatjis, et al. J. Med. Chem. (2007) 4048, the content of each of which is hereby incorporated by reference.
# CB2 receptor = CB2 receptor (UniProt P47936); assay: CB2 receptor binding affinity (Ki); details: read-out: CB2 receptor Ki
# Experimental: Some disclosed compounds were tested for CB1 and CB2 receptor binding affinity (Tables 1, 2, 3, 4, 5, 6). As used herein “binding affinity” is represented by the Ki value. The Ki value is the affinity constant and describes the affinity of the compound for the receptor. The lower the Ki value, the higher the affinity of the compound for the receptor. A detailed description of the methods used to test “binding affinity” of compounds is given in Makriyannis, et al., US 2007, 0135388 and in Papahatjis, et al. J. Med. Chem. (2007) 4048, the content of each of which is hereby incorporated by reference.
# CB2 = CB2 (Homo sapiens, UniProt P34972); assay: cyclic adenosine monophosphate (cAMP) assay at CB2; assay type: cell-based
# Chain of CB2 (P34972 whole entry, species assumed): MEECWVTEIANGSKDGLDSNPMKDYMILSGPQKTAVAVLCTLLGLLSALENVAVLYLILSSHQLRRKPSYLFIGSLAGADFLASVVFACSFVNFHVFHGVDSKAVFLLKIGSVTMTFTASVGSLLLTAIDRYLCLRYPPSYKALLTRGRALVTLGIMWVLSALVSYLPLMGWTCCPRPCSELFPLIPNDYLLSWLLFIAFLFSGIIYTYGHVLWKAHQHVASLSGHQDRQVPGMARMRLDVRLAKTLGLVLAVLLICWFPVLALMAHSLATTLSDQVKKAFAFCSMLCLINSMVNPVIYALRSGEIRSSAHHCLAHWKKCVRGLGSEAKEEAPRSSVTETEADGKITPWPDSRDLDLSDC
# Experimental: (§2) Functional characterization of some of the disclosed compounds was performed by using the cyclic adenosine monophosphate (cAMP) assay. The functional potency of the compound is represented by the EC50 value. The lower the EC50 value, the higher the functional potency. A detailed description of the cyclic adenosine monophosphate (cAMP) assay is given in Nikas et al. J. Med. Chem. (2010) 6996.
# CB1 [2] = target: T1, CB1; assay: cyclic adenosine monophosphate (cAMP) assay at CB1; assay type: cell-based
# Experimental: as §2
# C57BL/6 J mice = assay: Hypothermia assay (rectal temperature); assay type: in vivo; details: dose of 3 mg/kg, FIG. 2
# Experimental: as §1
# C57BL/6 J mice (Charles River Breeding Laboratories, Wilmington, Mass., USA) weighing 30 to 35 g were group housed five to a cage, in a temperature-controlled (20° C.) animal facility. Mice were habituated to the animal facility for at least 1 week prior to experiments with a 12-h light/dark cycle (lights are on at 7:00 AM). Mice were given free access to food and water. Experimentally naïve mice were used for each dose condition, and the mice were tested during the light phase.
# Rectal temperature was measured in mice using a rectal probe of a digital laboratory thermometer, RET-3-ISO, type T thermocouple (Physitemp Instruments Inc, Clifton, N.J.). The lubricated probe was inserted approximately 2.0 cm into the rectum for approximately 30 sec, prior to each recording. […]
# [3] = read-out: Functional Potency (EC50)
Compound,"antinociception (analgesia) (C57BL6/J mice; dose of 3 mg/Kg, FIG. 1)",pKi (CB1 [1]),pKi (CB2 receptor),Functional Activity (CB2),Emax (CB2; read-out: % Efficacy) [%],pEC50 (CB2; [3]),Functional Activity (CB1 [2]),Emax (CB1 [2]; read-out: % Efficacy) [%],pEC50 (CB1 [2]; [3]),centrally mediated hypothermia (C57BL/6 J mice),potency in the analgesia assay relative to compound 41 (times less potent) (C57BL6/J mice; same test as compound 41)
"CC1=C[C@H](c2c(O)cc(C3(CCCCCC#N)CCCC3)cc2O)[C@@H]2C[C@H]1C2(C)C [Compound 41, (+)-2-[(1R,4S,5S)-2,6,6-trimethylbicylco[3.1.1]hept-2-en-4-yl]-5-[(5-cyanopentyl)cyclopentyl]resorcinol]",maximum possible effect,8.59,9.10,,,,,,,,
"C=C(C)[C@H]1CCC(CO)=C[C@@H]1c1c(O)cc(C(C)(C)CCCCN2CCOCC2)cc1O [Compound 71, 2-[(1S,6S)-3-(Hydroxymethyl)-6-(1-methylethenyl)-2-cyclohexen-1-yl]-5-(6-morpholino-2-methylhexane-2-yl)resorcinol]",,8.22,8.52,Partial agonist at CB2,42,9.40,Agonist at CB1,88,8.85,does not show significant hypothermia,
"(−)-Δ^9-tetrahydrocannabinol [(−)-Δ^9-THC, reference compound]",,,,,,,,,,,approximately 10 times
